In one test the target is hSTING-CTD (Homo sapiens (Human), UniProt Q86WV6). Description: Human STING protein FP competition concentration response assay. In kind it is binding. As to the method: (§1) A validated STING ligand, such as c-di-GMP, which is labeled with a read-out signal (e.g., a fluorescence signal such as fluorescein), is mixed with STING-CTD (e.g., mouse STING-CTD or human STING-CTD) with or without the presence of a compound of the present application. Changes in the read-out signal are measured (e.g., by fluorescence anisotropy) to determine the binding of the compound to STING-CTD.
Chain of hSTING-CTD (Q86WV6 135-379): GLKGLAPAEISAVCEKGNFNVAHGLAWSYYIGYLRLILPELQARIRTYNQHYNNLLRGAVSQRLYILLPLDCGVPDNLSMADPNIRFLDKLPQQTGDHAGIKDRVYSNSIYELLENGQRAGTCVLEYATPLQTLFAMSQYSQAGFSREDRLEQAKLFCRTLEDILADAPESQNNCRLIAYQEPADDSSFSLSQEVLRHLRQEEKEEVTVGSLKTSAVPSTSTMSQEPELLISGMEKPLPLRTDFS
Fluorescein labeled c-di-GMP, a validated STING ligand, was mixed with recombinant hSTING-CTD in a homogenous assay format with or without the presence of a compound of the present application (titrated) in PBS in black 384-well plates (10 μL per well). The fluorescence anisotropy was determined on a PerkinElmer EnVisions multi-mode plate reader. The plate can be read immediately after mixing the reagents or after a few hours without change of signals.
• 1) hSTING (Supplier: HDB) • 2) 2′-Fluo-AHC-c-di GMP (BIOLOG #F009) • 3) 2′3′-cGAMP (BIOLOG #C161) • 4) DMXAA (InvivoGen #tlrl-dmx) • 5) DMSO (Sigma, #D5879-100 mL) • 6) 10×PBS(HDB #MCP-020) • 7) Assay plate, 384-well black plate, solid black bottom (Greiner #784076) • 8) Compound dilution intermediate plate, 384 LDV plate (Labcyte #LP-0200) • 9) Liquid handler, ECHO550 (Labcyte) • 10) Liquid handler, Bravo (Aglient) • 11) Reader, Envision (PerkinElmer) • 12) Centrifuge (Eppendorf) • 13) Multichannel Pipette (Raining) • 14) 10 ml Reservoir (Corning) • 15) 15 ml centrifuge tube (Corning) • 16) Adhesive Plate seals (BioRad) Compound Preparation • a) Containers of each compound were centrifuged at 1000 rpm for 5 min. • b) Compounds were dissolved in DMSO at 30 mM. • c) Compounds were sufficiently vortexed, and centrifuged at 1000 rpm for 1 min. • d) 16 uL of the compound solution was transferred into a LDV Compound Plate. • e) 2-fold serial dilutions of the compound solution were made with DMSO, and 14 concentrations were made in the 384-well LDV Compound Plate. • f) The LDV plate was spun at 1000 rpm for 60 sec and sealed with foil (stored at −20° C. if not used immediately). • g) 335 nL of each compound from the LDV Compound Plate was transferred to Assay Plate (ECHO550). Probe Preparation • a) 200 uM probe stock (2′-Fluo-AHC-c-diGMP) was diluted by ddH2O to 6 uM working concentration. • b) 10-12 uL 6 uM working solution of probe was transferred into the LDV plate. • c) 50 nL per well 6 uM working solution of probe was transferred from the LDV plate to each well of the empty Assay Plate (Greiner 784076) by ECHO550 Buffer mode. • d) Probe final concentration was 30 nM when assay system was 10 uL. • e) The Assay Plate was spun at 1000 rpm for 1 min. Compound Addition • a) After the LDV Compound Plate was prepared, 335 nL compound (ECHO550 DMSO mode) was transferred from the LDV Compound Plate into the Assay Plate (Greiner 784076) containing 50 nL probe in each well according to the Assay Plate layout. • b) DMSO final concentration was 3.35% when assay system was 10 uL. • c) The Assay Plate was spun at 1000 rpm for 1 min. Protein Addition • a) Aliquot of hSTING protein was thawed on ice, briefly to generate uniform solution. • b) 55 uM stock protein was diluted in 1×PBS assay buffer to generate 10 uM final solutions. • c) For test compound and ZPE wells, 10 μL per well of 10 uM protein solutions was added into the Assay Plate containing both the probe and test compounds or DMSO using multichannel pipette. • d) For HPE wells, 10 μL/well of 1×PBS assay buffer instead of protein was added into the Assay Plate containing both the probe and DMSO using multichannel pipette. • e) The Assay Plate was spun at 1000 rpm for Imin. • f) The Assay Plate was incubated at r.t. for 10-20 min.
(§2) The EnVision plate reader was used to record the FA value of each well immediately after mixing the reagents or after a few hours without change of signals.
(§3) The raw data and calculated data (Fluorescence anisotropy (FA)) was exported from the EnVision reader. […]

In the next test the target is mSTING-CTD (Mus musculus (Mouse), UniProt Q3TBT3). Description: Mouse STING protein FP competition concentration response assay. The format is binding. As to the method:
as §1
Fluorescein labeled c-di-GMP was mixed with mSTING-CTD with or without the presence of a compound of the present application in PBS in black 384-well plates (10 μL per well). The fluorescence anisotropy was determined on a PerkinElmer EnVisions multi-mode plate reader. The plate can be read immediately after mixing the reagents or after a few hours without change of signals.
• 1) 6×his-sumo-mSTING (Supplier: HDB) • 2) 2′-Fluo-AHC-c-di GMP (BIOLOG #F009) • 3) 23-cGAMP (BIOLOG #C161) • 4) DMXAA (InvivoGen #tlrl-dmx) • 5) DMSO (Sigma. #D5879-100 mL) • 6) 10×PBS(HDB #MCP-020) • 7) Assay plate, 384-well black plate, solid black bottom (Greiner #784076) • 8) Compound dilution intermediate plate, 384 LDV plate (Labcyte #LP-0200) • 9) Liquid handler, ECHO550 (Labcyte) • 10) Liquid handler, Bravo (Aglient) • 11) Reader, Envision (PerkinElmer) • 12) Centrifuge (Eppendorf) • 13) Multichannel Pipette (Raining) • 14) 10 ml Reservoir (Corning) • 15) 15 ml centrifuge tube (Corning) • 16) Adhesive Plate seals (BioRad) Compound Preparation • a) Containers of each compound were centrifuged at 1000 rpm for 5 min. • b) Compounds were dissolved in DMSO at 30 mM. • c) Compounds were sufficiently vortexed, and centrifuged at 1000 rpm for 1 min. • d) 16 uL of the compound solution was transferred into a LDV Compound Plate. • e) 2-fold serial dilutions of the compound solution were made with DMSO, and 14 concentrations were made in the 384-well LDV Compound Plate. • f) The LDV plate was spun at 1000 rpm for 60 sec and sealed with foil (stored at −20° C. if not used immediately). • g) 335 nL of each compound from the LDV Compound Plate was transferred to Assay Plate (ECHO550). Probe Preparation • a) 200 uM probe stock (2′-Fluo-AHC-c-diGMP) was diluted by dd2O to 6 uM working concentration. • b) 10-12 uL 6 uM working solution of probe was transferred into the LDV plate. • c) 50 nL per well 6 uM working solution of probe was transferred from the LDV plate to each well of the empty Assay Plate (Greiner 784076) by ECHO550 Buffer mode. • d) Probe final concentration was 30 nM when assay system was 10 uL. • e) The Assay Plate was spun at 1000 rpm for 1 min. Compound Addition • a) After the LDV Compound Plate was prepared, 100 nL compound (ECHO550 DMSO mode) was transferred from the LDV Compound Plate into the Assay Plate (Greiner 784076) containing 50 nL probe in each well according to the Assay Plate layout. • b) DMSO final concentration was 1% when assay system was 10 uL. • c) The Assay Plate was spun at 1000 rpm for 1 min. Protein Addition • a) Aliquot of 6×his-sumo-mSTING protein was thawed on ice, briefly to generate uniform solution. • b) 66 uM stock protein was diluted in 1×PBS assay buffer to generate 8 uM final solutions. • c) For test compound and ZPE wells, 10 μL per well of 8 uM protein solutions was added into the Assay Plate containing both the probe and test compounds or DMSO using multichannel pipette. • d) For HPE wells, 10 µL/well of 1×PBS assay buffer instead of protein was added into the Assay Plate containing both the probe and DMSO using multichannel pipette. • e) The Assay Plate was spun at 1000 rpm for 1 min. • f) The Assay Plate was incubated at r.t. for 10-20 min.
as §2, §3

A value given as a limit tells only on which side of the number the result lay.

Chain of mSTING-CTD (Q3TBT3 134-378): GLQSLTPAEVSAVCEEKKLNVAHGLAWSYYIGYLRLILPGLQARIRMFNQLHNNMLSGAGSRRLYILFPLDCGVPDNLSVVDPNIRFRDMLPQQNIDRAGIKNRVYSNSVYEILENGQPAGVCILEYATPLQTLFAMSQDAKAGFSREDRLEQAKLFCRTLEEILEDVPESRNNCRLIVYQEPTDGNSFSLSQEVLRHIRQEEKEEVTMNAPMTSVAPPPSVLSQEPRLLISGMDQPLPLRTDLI

On to `O=C(O)Cn1c2ccccc2c(=O)c2cc(CCc3ccccc3)ccc21` [Compound 23], for which the half-inhibitory concentration (IC50) at hSTING-CTD lay within 100 to 500 µM; on mSTING-CTD, 10 to 50 µM.
In the case of `Cc1ccc2c(c1)c(=O)c1ccccc1n2CC(=O)O` [Compound 10], the 50% inhibitory concentration (IC50) at hSTING-CTD is greater than 1000 µM; on mSTING-CTD, 10 to 50 µM.
`CC(C)c1ccc2c(=O)c3ccc(Cl)c(Cl)c3n(CC(=O)O)c2c1` [Compound 81]: the half-maximal inhibitory concentration (IC50) at hSTING-CTD is less than 100 µM; on mSTING-CTD, 10 to 50 µM.
Consider `Cc1c(CCc2ccccc2)ccc2c(=O)c3ccccc3n(CC(=O)O)c12` [Compound 27], for which the IC50 at hSTING-CTD was greater than 1000 µM; on mSTING-CTD it was 50 to 100 µM.
Taken in the same sequence, the figures for `Cc1ccc2c(=O)c3ccc(Cl)cc3n(CC(=O)O)c2c1` [Compound 17] were 500 to 1000 µM and 10 to 50 µM.
For the compound `Cc1ccc2c(=O)c3ccccc3n(CC(=O)O)c2c1Cl` [Compound 19], the concentration for half-maximal inhibition (IC50) was greater than 1000 µM on hSTING-CTD and 10 to 50 µM on mSTING-CTD.
Consider `Cc1ccc2c(=O)c3ccc(Cl)c(Cl)c3n(CC(=O)O)c2c1` [Compound 29], for which the figures for the IC50 at hSTING-CTD and at mSTING-CTD were 100 to 500 µM and 10 to 50 µM, respectively.
With `CCc1ccc2c(=O)c3ccc(Cl)c(Cl)c3n(CC(=O)O)c2c1` [Compound 82], the IC50 fell in the range of 100 to 500 µM on hSTING-CTD and 50 to 100 µM at mSTING-CTD.
Consider `O=C(O)Cn1c2cc(NC3CCCCC3)ccc2c(=O)c2ccc(Cl)c(Cl)c21` [Compound 59], for which the results for the IC50 on hSTING-CTD and at mSTING-CTD were less than 100 µM and 10 to 50 µM, respectively.
As for `O=C(O)Cn1c2ccccc2c(=O)c2ccc3c(c21)CCCC3` [Compound 9], the IC50 is 500 to 1000 µM on hSTING-CTD and less than 10 µM at mSTING-CTD.
As for `COc1ccc2c(=O)c3ccc(C)cc3n(CC(=O)O)c2c1` [Compound 34], the results for the 50% inhibitory concentration (IC50) on hSTING-CTD and at mSTING-CTD were greater than 1000 µM and 10 to 50 µM, respectively.
On to `Cc1ccc2c(=O)c3cccc(C)c3n(CC(=O)O)c2c1` [Compound 11], for which the IC50 at hSTING-CTD was 500 to 1000 µM; on mSTING-CTD, less than 10 µM.
Taken in the same sequence, the figures for `Cc1c(Cl)ccc2c(=O)c3ccccc3n(CC(=O)O)c12` [Compound 98] were 500 to 1000 µM and 10 to 50 µM.
Turning to `Cc1c(C2=CCCCC2)ccc2c(=O)c3ccccc3n(CC(=O)O)c12` [Compound 28], the 50% inhibitory concentration (IC50) on hSTING-CTD lay in the range of 500 to 1000 µM; at mSTING-CTD it was 10 to 50 µM.
Take `Cc1cc2c(=O)c3ccc(Cl)c(Cl)c3n(CC(=O)O)c2cc1C` [Compound 94]: the 50% inhibitory concentration (IC50) at hSTING-CTD is 100 to 500 µM; on mSTING-CTD it was 50 to 100 µM.
Taken in the same sequence, the figures for `Cc1ccc2c(=O)c3ccc(C)cc3n(CC(=O)O)c2c1` [Compound 15] were greater than 1000 µM and 10 to 50 µM.
For the compound `CC(C)(C)c1ccc2c(=O)c3ccc(Cl)c(Cl)c3n(CC(=O)O)c2c1` [Compound 47], the concentration for half-maximal inhibition (IC50) at hSTING-CTD is less than 100 µM; at mSTING-CTD, 10 to 50 µM.
Regarding `O=C(O)Cn1c2cc(N3CCCCC3)ccc2c(=O)c2ccc(Cl)c(Cl)c21` [Compound 61], the IC50 was less than 100 µM on hSTING-CTD and 10 to 50 µM at mSTING-CTD.
On to `CC1(C)CCC=C(c2ccc3c(c2)c(=O)c2ccc(Cl)c(Cl)c2n3CC(=O)O)C1` [Compound 67], for which the values for the concentration for half-maximal inhibition (IC50) at hSTING-CTD and at mSTING-CTD were 500 to 1000 µM and greater than 100 µM, respectively.
Taken in the same sequence, the figures for `O=C(O)Cn1c2ccccc2c(=O)c2cc(C#Cc3ccccc3)ccc21` [Compound 22] were 500 to 1000 µM and 10 to 50 µM.
Take `O=C(O)Cn1c2ccccc2c(=O)c2cccc(Cl)c21` [Compound 8]: the figures for the 50% inhibitory concentration (IC50) at hSTING-CTD and at mSTING-CTD were greater than 1000 µM and 10 to 50 µM, respectively.
Take `Cc1ccc2c(=O)c3cccc(Cl)c3n(CC(=O)O)c2c1` [Compound 12]: the concentration for half-maximal inhibition (IC50) at hSTING-CTD is 500 to 1000 µM; at mSTING-CTD, less than 10 µM.
For the compound `O=C(O)Cn1c2ccccc2c(=O)c2ccc(CCc3ccccc3)cc21` [Compound 26], the 50% inhibitory concentration (IC50) is 500 to 1000 µM on hSTING-CTD and less than 10 µM at mSTING-CTD.
`Cc1cccc(-c2ccc3c(c2)c(=O)c2ccc(Cl)c(Cl)c2n3CC(=O)O)c1` [Compound 68]: the IC50 at hSTING-CTD is less than 100 µM; at mSTING-CTD, 10 to 50 µM.

For the origin of these results see patent publication US11414387B2, “Oxoacridinyl acetic acid derivatives and methods of use” (Stingthera, Inc., priority 2017, dated 2022).
